Test results from patent US20250032641A1, “IMMUNE- STIMULATING COMPOUNDS LINKED TO GLYCOGEN-BASED POLYSACCHARIDE NANOPARTICLES FOR SENSITIZING CANCER CELLS TO A CHEMOTHERAPEUTIC DRUG” (GLYSANTIS BIOTECH INC., priority 2020, published 2025).

Legend:
[1] = test system: IFN-beta, ISG15, CXCL10 transcripts in SKOV3, SKBR3, MCF7, HeLa, B16F10 cells; assay: qRT-PCR transcript levels of interferon-stimulated genes / innate immune response in cancer cell lines; format: cell-based, human; settings: cancer cells (Breast, Ovarian, Cervical, Melanoma); same doses bound and unbound
Experimental: SKOV-3 cells were treated with media alone (CTRL), 125 ng/ml of pI:pC, or 125 ng/mL of poly IC complexed with 250 ng/ml of PhG (poly IC:PhG) for 6 hours. Transcript levels were measured using qRT-PCR.
SKRBR-3 cells were treated with media alone (CTRL), 2.5 μg/mL of pI:pC, or 2.5 μg/mL of poly IC complexed with 5 μg/mL of PhG (poly IC:PhG) for 6 hours. Transcript levels were measured using qRT-PCR.
MCF-7 cells were treated with media alone (CTRL), 5 μg/mL of pI:pC, or 5 μg/mL of poly IC complexed with 10 μg/mL of PhG (poly IC:PhG) for 6 hours. Transcript levels were measured using qRT-PCR.
HeLa cells were treated with media alone (CTRL), 5 μg/mL of pI:pC, or 5 μg/mL of poly IC complexed with 10 μg/mL of PhG (poly IC:PhG) for 6 hours. Transcript levels were measured using qRT-PCR.
Hela cells were treated with media alone (CTRL), 5 μg/mL of pI:pC, or 5 μg/mL of poly IC complexed with 10 μg/mL of PhG (poly IC:PhG) for 6 hours. Transcript levels were measured using qRT-PCR. […]
Cells were plated in 6-well plates at 1×10E6 cells per well in DMEM and allowed to attach overnight. […] All transcripts were normalized to actin and quantified relative to mock treated.

[2] = test system: pI:pC resistant SKOV-3 cells; assay: Cell viability by alamar blue, carboplatin alone or combined with free or nanoparticle bound pI:pC; format: cell-based; settings: carboplatin combination, 72 hours
Experimental: Twenty-four (24) hours post seeding, cells were left untreated, or treated with EC50 carboplatin, 125 ng/ml pI:pC, 125 ng/ml pI:pC ionically bound to glycogen nanoparticles (1:1 w/w), or the combination of EC50 carboplatin and 125 ng/ml pI:pC, or EC50 carboplatin and 125 ng/ml nanoparticle bound pI:pC, and cell viability was measured after 72 hours incubation.
Cell viability was measured by alamar blue of pI:pC resistant SKOV-3 cells treated with carboplatin alone, or in combination with “free” pI:pC or glycogen nanoparticle bound pI:pC. SKOV-3 cells were plated in a 12-well dish at 1.5×10^6 per well. Twenty-four (24) hours post seeding, cells were left untreated, or treated with EC50 carboplatin, 125 ng/ml pI:pC, 125 ng/ml pI:pC ionically bound to glycogen nanoparticles (1:1 w/w), or the combination of EC50 carboplatin and 125 ng/ml pI:pC, or EC50carboplatin and 125 ng/ml nanoparticle bound pI:pC. Cells were incubated at 37° C., 5% CO2 for 72 hours, and cell viability was measured by alamar blue assay according to the manufacturer's protocol (Invitrogen).

“polyinosinic:polycytidylic acid [unbound pI:pC]” was tested, and the innate immune response [1] was “ineffective” and the “sensitization of pI:pC resistant cells to a chemotherapeutic drug” value [2] was “ineffective”.
